Measured values taken from patent US9353090B2, “Heterocyclic carboxylic acids as activators of soluble guanylate cyclase” (Boehringer Ingelheim International GmbH, priority 2014, dated 2016).
Converted amounts (≈) assume the structure as drawn.

Tests used:
[1] = biological target: human soluble guanylate cyclase alpha 1 and beta 1 subunits (sGC) (Homo sapiens (Human), UniProt Q02108+Q02153); assay: sGC cellular activator assay (cGMP, HTRF), in the presence and absence of 50% human serum; assay type: cell-based; conditions: CHO cells stably expressing human sGC alpha 1/beta 1, preincubated with 40 microM ODQ; cGMP by HTRF; Table 2 does not state whether with or without 50% human serum
Sequence of human soluble guanylate cyclase alpha 1 and beta 1 subunits (sGC) (Q02108 whole entry partner): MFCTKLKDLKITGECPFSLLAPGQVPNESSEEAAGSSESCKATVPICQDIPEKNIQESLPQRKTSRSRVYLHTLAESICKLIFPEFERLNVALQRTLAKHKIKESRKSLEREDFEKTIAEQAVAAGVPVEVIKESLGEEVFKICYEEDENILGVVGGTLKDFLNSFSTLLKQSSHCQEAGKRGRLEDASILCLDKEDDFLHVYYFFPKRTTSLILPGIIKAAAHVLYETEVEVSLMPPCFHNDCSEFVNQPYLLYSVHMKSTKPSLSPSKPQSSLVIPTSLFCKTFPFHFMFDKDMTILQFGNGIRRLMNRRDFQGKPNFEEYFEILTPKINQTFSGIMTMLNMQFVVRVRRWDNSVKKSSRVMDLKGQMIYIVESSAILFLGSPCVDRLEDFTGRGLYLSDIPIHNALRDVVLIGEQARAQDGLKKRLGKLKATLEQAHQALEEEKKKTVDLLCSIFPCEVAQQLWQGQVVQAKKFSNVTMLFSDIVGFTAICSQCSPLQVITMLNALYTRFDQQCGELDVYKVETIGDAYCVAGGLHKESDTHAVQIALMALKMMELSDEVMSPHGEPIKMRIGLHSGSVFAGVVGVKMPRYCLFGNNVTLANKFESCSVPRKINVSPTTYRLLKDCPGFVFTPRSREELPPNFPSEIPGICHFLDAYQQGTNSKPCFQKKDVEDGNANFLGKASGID
Sequence of human soluble guanylate cyclase alpha 1 and beta 1 subunits (sGC) (Q02153 whole entry): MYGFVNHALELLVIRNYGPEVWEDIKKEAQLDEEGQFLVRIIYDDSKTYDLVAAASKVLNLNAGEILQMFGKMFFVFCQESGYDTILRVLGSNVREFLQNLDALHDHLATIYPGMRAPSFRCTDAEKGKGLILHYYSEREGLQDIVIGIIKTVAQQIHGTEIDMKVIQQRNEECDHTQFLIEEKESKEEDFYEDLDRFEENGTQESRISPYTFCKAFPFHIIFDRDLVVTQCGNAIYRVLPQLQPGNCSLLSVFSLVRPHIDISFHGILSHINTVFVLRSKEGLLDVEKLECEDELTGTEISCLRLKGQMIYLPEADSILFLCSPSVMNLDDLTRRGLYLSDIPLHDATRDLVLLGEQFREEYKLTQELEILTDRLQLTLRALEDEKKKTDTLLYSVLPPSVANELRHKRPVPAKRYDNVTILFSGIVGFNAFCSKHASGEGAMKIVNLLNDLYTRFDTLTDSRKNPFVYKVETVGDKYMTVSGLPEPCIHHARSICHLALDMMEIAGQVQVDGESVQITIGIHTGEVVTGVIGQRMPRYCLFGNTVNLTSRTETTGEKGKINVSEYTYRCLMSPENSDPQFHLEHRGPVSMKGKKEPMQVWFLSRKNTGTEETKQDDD
Procedure: The sGC cellular activator assay is performed in the presence and absence of 50% human serum (HS) using Chinese hamster ovary cells that have been stably transfected to express the human soluble guanylate cyclase alpha 1 and beta 1 subunits (sGC). Cells are preincubated with 40 microM 1H-[1,2,4]oxadiazolo[4,3-a]quinoxalin-1-one (ODQ), an sGC inhibitor, for one h in buffer containing 0.1% bovine serum albumin and 3-isobutyl-1-methylxanthine (IBMX). Concentration response curves are prepared for test compounds in DMSO. An intermediate dilution of the compounds is performed in either buffer containing IBMX or type AB HS containing IBMX. Diluted compounds are added to cells and they are incubated at room temperature for thirty min. cGMP is measured using a CisBio homogeneous time resolved fluorescence kit and the EC50 is calculated for each compound.
Representative compounds of the present invention were tested for activity the above assay. Preferred compounds have an EC50 of <1,000 nM in the above assay and more preferred compounds have an EC50<200 nM.

[2] = Human liver microsome (HLM) metabolic stability assay; assay type: in vitro ADME; conditions: human liver microsomes
Procedure: The 5 time point, high-throughput human liver microsome (HLM) metabolic stability assay is designed to determine in vitro compound metabolism. Compounds are incubated with HLMs at a concentration of 1 uM, at 37° C., for a total of 60 min. The percent of compound remaining at 5, 15, 30, and 60 min is used to calculate the t1/2 (min), CLint (mL/min/kg), CLh (mL/min/kg), and % Qh. The assay is based on a 96-well format and can accommodate up to 92 compounds per plate (n=1).
Using the 96-well multi-channel head, the Biomek FX, equipped with a Peltier heating block/shaker, is programmed to accomplish the following steps: • 1. Pipette 175 uL of 1.15 mg/mL microsomes into each of the 96 conical inserts (Analytical Sales and Products, catalog number 96PL05) that fit into the plate of the Peltier heating block/shaker (the incubation plate) • 2. Add 5 uL of compounds from the assay plate to the microsomes and shake the mixture at 600 rpm at 42.1° C. for 10 min (a setting of 42.1° C. on the Peltier is required for the samples to incubate at 37° C.) • 3. After 10 min, prompt the user to add the NADPH plate to the deck and add 20 uL from the NADPH plate to the incubation plate to start the reaction • 4. Add 215 uL of 100%, cold acetonitrile containing an internal standard(s) to a 0 minute, 5 minute, 15 minute, 30 minute, and 60 minute “quench” plate • 5. At 0 min, 5 min, 15 min, 30 min, and 60 min into the incubation, aspirate 12 uL from the incubation mixture and add it to the quench solution to stop the reaction • 6. Add 185 uL HPLC grade water to each well of the 0, 5, 15, 30 and 60 minute quench plates to dilute compounds to the appropriate concentration for the mass spectrometer
After all time points are collected, the quench plates are sealed with 96-well pierceable plate mats or heat sealing foil and centrifuged at 3000 rpm for 15 min to pellet the microsomes.
The plates are analyzed using LC/MS/MS with electron spray ionization (ESI) and the previously determined MRM transitions. The LC method includes the following parameters:
Using an Excel template in Activitybase, the peak areas corresponding to 5, 15, 30 and 60 min are compared to the peak area at 0 min to calculate the percent of remaining compound using the following equation:
Percent compound remaining=(AUC at Time t min/AUC at Time 0 min)×100 where t=0, 5, 15, 30 or 60 min.
Time (min) is plotted against the natural logarithm (Ln) of the percent compound remaining to determine the slope. The slope is used to calculate t1/2 (min) using the equation, t1/2=0.693/slope.
Clh, Hepatic clearance • Hepatic flow*f(u)*Clint/(hepatic flow+f(u)*Clint)
Qh, % Hepatic blood flow • (Clh/Hepatic flow)*100
Preferred compounds have % Qh values of less than 24.

physchem = conditions: kinetic from dmso stock
[3] = pH 2.2, aqueous buffer, Solubility (pH 2.2)
[4] = pH 4.5, aqueous buffer, Solubility (pH 4.5)
[5] = pH 6.8, aqueous buffer, Solubility (pH 6.8)

Row | SMILES | EC50 [1] [nM] | Metabolic stability (Qh %), % hepatic blood flow [2] [%] | solubility at 24 h (physchem; [3]) [µg/mL] | solubility at 24 h (physchem; [4]) [µg/mL] | solubility at 24 h (physchem; [5]) [µg/mL]
1 | COC[C@H]1N(c2cccc(-c3cccc(C)c3OCc3ccc4c(c3)CCN(C3CCOC3)C4)n2)C[C@@H]2C[C@@]21C(=O)O (mixture of isomers) [Compound 45] | 76 | <24 | 140 | 100 | 81
2 | COC[C@H]1N(c2cccc(-c3cccc(C)c3OCc3cc(C)c4c(c3)CCN(C3CCOC3)C4)n2)C[C@@H]2C[C@@]21C(=O)O (single isomer, unassigned) [Compound 51] | 27 | 28 | 110 (≈ 188 µM) | 94 (≈ 161 µM) | 74 (≈ 127 µM)
3 | Cc1c(COc2ccccc2-c2cccc(N3CC[C@@]4(C(=O)O)C[C@H]4C3)n2)ccc2c1CCN([C@H]1CCOC1)C2 [Compound 7] | 11 | 45 | 150 (≈ 278 µM) | 120 (≈ 222 µM) | 59 (≈ 109 µM)
4 | Cc1c(COc2ccccc2-c2cccc(N3CC[C@@]4(C(=O)O)C[C@H]4C3)n2)ccc2c1CCN([C@@H]1CCOC1)C2 [Compound 8] | 12 | 49 | 150 (≈ 278 µM) | 110 (≈ 204 µM) | 44 (≈ 81.5 µM)
5 | CO[C@H]1CN(c2nc(-c3cc(C)ccc3OCc3ccc4c(c3C)CCN(C[C@H]3CCOC3)C4)cs2)CC[C@H]1C(=O)O [Compound 179] | 17 | – | – | – | –
6 | Cc1ccc(OCc2ccc3c(c2)CCN(C2CCC(F)(F)CC2)C3)c(-c2csc(N3C[C@H]4CC[C@@H](C3)[C@H]4C(=O)O)n2)c1 [Compound 183] | 80 | 42 | – | – | –
7 | Cc1ccc(OCc2ccc3c(c2)CCN(C2CCOCC2)C3)c(-c2csc(N3C[C@H]4CC[C@@H](C3)[C@H]4C(=O)O)n2)c1 [Compound 184] | 68 | – | – | – | –
8 | Cc1ccc(OCc2ccc3c(c2)CCN(C2CCOCC2)C3=O)c(-c2cccc(N3CC[C@@]4(C(=O)O)C[C@H]4C3)n2)c1 [Compound 193] | 22 | 52 | – | – | –
9 | CCO[C@H]1CN(c2nccc(-c3cccc(C)c3OCc3cc(C)c4c(c3)CCN(C3CCOCC3)C4)n2)CC[C@H]1C(=O)O [Compound 245] | 23 | <24 | – | – | –
10 | CCO[C@@H]1CN(c2nccc(-c3cccc(C)c3OCc3cc(C)c4c(c3)CCN(C3CCOCC3)C4)n2)CC[C@@H]1C(=O)O [Compound 247] | 659 | <24 | – | – | –
11 | CO[C@H]1CN(c2nc(-c3cccc(C)c3OCc3cc(C)c4c(c3)CCN(C3COC3)CC4)cs2)CC[C@H]1C(=O)O [Compound 294] | – | <24 | 108 (≈ 187 µM) | 77.7 (≈ 134 µM) | 77.9 (≈ 135 µM)
12 | CO[C@H]1CN(c2nc(-c3cccc(C)c3OCc3cc(C)c4c(c3)CCN(C3CCOCC3)CC4)cs2)CC[C@H]1C(=O)O [Compound 295] | – | <24 | 109 (≈ 180 µM) | 80.5 (≈ 133 µM) | 79.2 (≈ 131 µM)
13 | Cc1csc(CN2CCc3c(ccc(COc4ccccc4-c4cccc(N5CC[C@@]6(C(=O)O)C[C@H]6C5)n4)c3C)C2)n1 [Compound 304] | – | 48 | 157 (≈ 270 µM) | 154 (≈ 265 µM) | 146 (≈ 251 µM)
14 | Cc1cccc(-c2cccc(N3CC[C@@H](C(=O)O)[C@H]4OCCC[C@@H]43)n2)c1OCc1ccc2c(c1C)CCN(C1CCOCC1)CC2 [Compound 335] | 80 | – | – | – | –

Results, then the compound that gave them:

Row | EC50 [1] [nM] | Metabolic stability (Qh %), % hepatic blood flow [2] [%] | solubility at 24 h (physchem; [3]) [µg/mL] | solubility at 24 h (physchem; [4]) [µg/mL] | solubility at 24 h (physchem; [5]) [µg/mL] | SMILES
15 | 10 | <24 | 110 | 14 | 0.69 | Cc1ccc(OCc2cc(C)c3c(c2)CCN(C2CCCOC2)C3)c(-c2csc(N3CC[C@@]4(C(=O)O)C[C@H]4C3)n2)c1 (mixture of isomers) [Compound 121]
16 | 11 | 43 | 120 | 18 | 1.6 | Cc1ccc(OCc2cc(C)c3c(c2)CCN(C2CCOC2)C3)c(-c2csc(N3CC[C@@]4(C(=O)O)C[C@H]4C3)n2)c1 (mixture of isomers) [Compound 122]
17 | 7 | <24 | 140 (≈ 259 µM) | 120 (≈ 222 µM) | 57 (≈ 106 µM) | O=C(O)[C@@]12CCN(c3cccc(-c4ccccc4OCc4ccc5c(c4)CCN(C4CCOCC4)C5)n3)C[C@@H]1C2 [Compound 1, (1R,6S)-3-(6-{2-[2-(Tetrahydro-pyran-4-yl)-1,2,3,4-tetrahydro-isoquinolin-6-ylmethoxy]-phenyl}-pyridin-2-yl)-3-aza-bicyclo[4.1.0]heptane-6-carboxylic acid]
18 | 11 | <24 | 110 (≈ 215 µM) | 90 (≈ 176 µM) | 58 (≈ 113 µM) | O=C(O)[C@@]12CCN(c3cccc(-c4ccccc4OCc4ccc5c(c4)CCN(C4COC4)C5)n3)C[C@@H]1C2 [Compound 2]
19 | 4 | <24 | 140 (≈ 266 µM) | 120 (≈ 228 µM) | 65 (≈ 124 µM) | Cc1c(COc2ccccc2-c2cccc(N3CC[C@@]4(C(=O)O)C[C@H]4C3)n2)ccc2c1CCN(C1COC1)C2 [Compound 4]
20 | 3 | 35 | 160 (≈ 281 µM) | 140 (≈ 246 µM) | 79 (≈ 139 µM) | Cc1c(COc2ccccc2-c2cccc(N3CC[C@@]4(C(=O)O)C[C@H]4C3)n2)ccc2c1CCN(CC1COCCO1)C2 (some centres unmarked) [Compound 5]
21 | 3 | 54 | 160 (≈ 289 µM) | 130 (≈ 235 µM) | 60 (≈ 108 µM) | Cc1c(COc2ccccc2-c2cccc(N3CC[C@@]4(C(=O)O)C[C@H]4C3)n2)ccc2c1CCN(C1CCOCC1)C2 [Compound 6]
22 | 1 | 37 | 130 (≈ 228 µM) | 110 (≈ 193 µM) | 53 (≈ 93 µM) | Cc1c(COc2ccccc2-c2cccc(N3CC[C@@]4(C(=O)O)C[C@H]4C3)n2)ccc2c1CCN(C[C@H]1COCCO1)C2 [Compound 9]
23 | 9 | 32 | 130 (≈ 228 µM) | 110 (≈ 193 µM) | 55 (≈ 96.5 µM) | Cc1c(COc2ccccc2-c2cccc(N3CC[C@@]4(C(=O)O)C[C@H]4C3)n2)ccc2c1CCN(C[C@@H]1COCCO1)C2 [Compound 10]
24 | 4 | 53 | 140 (≈ 253 µM) | 110 (≈ 199 µM) | 46 (≈ 83.1 µM) | Cc1c(COc2ccccc2-c2cccc(N3CC[C@@]4(C(=O)O)C[C@H]4C3)n2)ccc2c1CCN([C@H]1CCCOC1)C2 [Compound 11]
25 | 5 | – | 93 (≈ 172 µM) | 73.7 (≈ 136 µM) | 5.2 (≈ 9.6 µM) | COCC(C)N1CCc2c(ccc(COc3ccccc3-c3cccc(N4CC[C@@]5(C(=O)O)C[C@H]5C4)n3)c2C)C1 (some centres unmarked) [Compound 310]
26 | 10 | – | 109 (≈ 173 µM) | 68.3 (≈ 109 µM) | 66.7 (≈ 107 µM) | CO[C@H]1CN(c2nc(-c3cccc(Cl)c3OCc3ccc4c(c3)CCN(C3CCOCC3)C[C@H]4C)cs2)CC[C@H]1C(=O)O [Compound 333]
